From patent US11458123B2 (Arvinas, Inc., priority 2016, dated 2022)

system: tau protein; assay: Tau protein in vitro degradation assay (Western blot, Tau-13 antibody); format: cell-based, human; conditions: SK-N-SH cells; 72 hours of incubation; tested at 300 nM, 100 nM, 33 nM and 11 nM; Western blot, Tau-13 antibody
Outline: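 Tau degradation read by Tau-13 Western blot (detects all human tau forms) of SDS-PAGE-resolved lysates from SK-N-SH cells. Cells were plated at least 18 h before 72 h exposure to PROTACs at either 1000/300/100 nM or 300/100/33/11 nM.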

For `O=C1CCC(N2C(=O)c3ccc(OCC#Cc4ccc(O[C@H]5C[C@H](Oc6ccc(-c7ccc8c(c7)[nH]c7ccncc78)cn6)C5)cc4)cc3C2=O)C(=O)N1` (stereo partly shown) [Compound 189, 5-((3-(4-((1r,3r)-3-((5-(5H-pyrido[4,3-b]indol-7-yl)pyridin-2-yl)oxy)cyclobutoxy)phenyl)prop-2-yn-1-yl)oxy)-2-(2,6-dioxopiperidin-3-yl)isoindoline-1,3-dione], which “Degradation activity (tau protein remaining; highest amount of degradation observed at any dosage)” value is on record?
The value was “B (≤80% and >50% tau protein remaining after 72 hours of incubation with the test compound)”.

How did the “Degradation activity (tau protein remaining; highest amount of degradation observed at any dosage)” value turn out when `Cn1c2ccncc2c2ccc(-c3ccc(O[C@H]4C[C@H](OCCOCCOCCC5CN(c6ccc7c(c6)C(=O)N(C6CCC(=O)NC6=O)C7=O)C5)C4)nc3)cc21` (stereo partly shown) [Compound 190, 2-(2,6-dioxopiperidin-3-yl)-5-(3-(2-(2-(2-((1r,3r)-3-((5-(5-methyl-5H-pyrido[4,3-b]indol-7-yl)pyridin-2-yl)oxy)cyclobutoxy)ethoxy)ethoxy)ethyl)azetidin-1-yl)isoindoline-1,3-dione] was run?
The value was “C (>80% tau protein remaining after 72 hours of incubation with the test compound)”.

How did the “Degradation activity (tau protein remaining; highest amount of degradation observed at any dosage)” value turn out when `Cn1c2ccncc2c2ccc(-c3ccc(O[C@H]4C[C@H](OCCOCCCOCC5CN(c6ccc7c(c6)C(=O)N(C6CCC(=O)NC6=O)C7=O)C5)C4)nc3)cc21` (stereo partly shown) [Compound 191, 2-(2,6-dioxopiperidin-3-yl)-5-(3-((3-(2-((1r,3r)-3-((5-(5-methyl-5H-pyrido[4,3-b]indol-7-yl)pyridin-2-yl)oxy)cyclobutoxy)ethoxy)propoxy)methyl)azetidin-1-yl)isoindoline-1,3-dione] was run?
Its value is “A (≤50% tau protein remaining after 72 hours of incubation with the test compound)”.

Which “Degradation activity (tau protein remaining; highest amount of degradation observed at any dosage)” value does the source give for `Cn1c2ccncc2c2ccc(-c3ccc(O[C@H]4C[C@H](OCCOCCOCC5CN(c6ccc7c(c6)C(=O)N(C6CCC(=O)NC6=O)C7=O)C5)C4)nc3)cc21` (stereo partly shown) [Compound 192, 2-(2,6-dioxopiperidin-3-yl)-5-(3-((2-(2-((1r,3r)-3-((5-(5-methyl-5H-pyrido[4,3-b]indol-7-yl)pyridin-2-yl)oxy)cyclobutoxy)ethoxy)ethoxy)methyl)azetidin-1-yl)isoindoline-1,3-dione] here?
The value was “C (>80% tau protein remaining after 72 hours of incubation with the test compound)”.

`Cn1c2ccncc2c2ccc(-c3ccc(OC4CC5(C4)CN(C(=O)COCCCOC4CN(c6ccc7c(c6)C(=O)N(C6CCC(=O)NC6=O)C7=O)C4)C5)nc3)cc21` (stereo not shown) [Compound 193, 2-(2,6-dioxopiperidin-3-yl)-5-(3-(3-(2-(6-((5-(5-methyl-5H-pyrido[4,3-b]indol-7-yl)pyridin-2-yl)oxy)-2-azaspiro[3.3]heptan-2-yl)-2-oxoethoxy)propoxy)azetidin-1-yl)isoindoline-1,3-dione] was tested. Which “Degradation activity (tau protein remaining; highest amount of degradation observed at any dosage)” value did it give?
Its value is “B (≤80% and >50% tau protein remaining after 72 hours of incubation with the test compound)”.

How did the “Degradation activity (tau protein remaining; highest amount of degradation observed at any dosage)” value turn out when `O=C1CCC(N2C(=O)c3ccc(N4CC(OCC#Cc5ccc(O[C@H]6C[C@H](Oc7ccc(-c8ccc9c(c8)[nH]c8ccncc89)cn7)C6)cn5)C4)cc3C2=O)C(=O)N1` (stereo partly shown) [Compound 194, 5-(3-((3-(5-((1r,3r)-3-((5-(5H-pyrido[4,3-b]indol-7-yl)pyridin-2-yl)oxy)cyclobutoxy)pyridin-2-yl)prop-2-yn-1-yl)oxy)azetidin-1-yl)-2-(2,6-dioxopiperidin-3-yl)isoindoline-1,3-dione] was run?
Its value is “C (>80% tau protein remaining after 72 hours of incubation with the test compound)”.

With `Cn1c2cc(-c3ccc(OCCOCCOCCOCCOCCOc4ccc5c(c4)C(=O)N(C4CCC(=O)NC4=O)C5=O)nc3)ccc2c2cncc(Cl)c21` (stereo not shown) [Compound 195, 5-((14-((5-(4-chloro-5-methyl-5H-pyrido[4,3-b]indol-7-yl)pyridin-2-yl)oxy)-3,6,9,12-tetraoxatetradecyl)oxy)-2-(2,6-dioxopiperidin-3-yl)isoindoline-1,3-dione] as the compound, how does the “Degradation activity (tau protein remaining; highest amount of degradation observed at any dosage)” value read?
Its value is “A (≤50% tau protein remaining after 72 hours of incubation with the test compound)”.

How did the “Degradation activity (tau protein remaining; highest amount of degradation observed at any dosage)” value turn out when `Cc1ncsc1-c1ccc(CNC(=O)[C@@H]2C[C@@H](O)CN2C(=O)[C@H](C(C)C)N2Cc3ccccc3C2=O)c(OCCOCCOCCOCCOc2ccc(-c3ccc4c(c3)[nH]c3ccncc34)cn2)c1` [Compound 196, (2S,4R)—N-(2-(2-(2-(2-(2-((5-(5H-pyrido[4,3-b]indol-7-yl)pyridin-2-yl)oxy)ethoxy)ethoxy)ethoxy)ethoxy)-4-(4-methylthiazol-5-yl)benzyl)-4-hydroxy-1-((S)-3-methyl-2-(1-oxoisoindolin-2-yl)butanoyl)pyrrolidine-2-carboxamide] was run?
Its value is “C (>80% tau protein remaining after 72 hours of incubation with the test compound)”.

How did the “Degradation activity (tau protein remaining; highest amount of degradation observed at any dosage)” value turn out when `Cn1c2ccncc2c2ccc(-c3ccc(O[C@H]4C[C@H](OCCCC(F)(F)COC5CC6(C5)CN(c5ccc7c(c5)C(=O)N(C5CCC(=O)NC5=O)C7=O)C6)C4)nc3)cc21` (stereo partly shown) [Compound 197, 5-(6-((2,2-difluoro-5-((1r,3r)-3-((5-(5-methyl-5H-pyrido[4,3-b]indol-7-yl)pyridin-2-yl)oxy)cyclobutoxy)pentyl)oxy)-2-azaspiro[3.3]heptan-2-yl)-2-(2,6-dioxopiperidin-3-yl)isoindoline-1,3-dione] was run?
Its value is “C (>80% tau protein remaining after 72 hours of incubation with the test compound)”.

With `Cn1c2ccncc2c2ccc(-c3ccc(O[C@H]4C[C@H](OC5CCN(c6cccc(C#CCOc7ccc8c(c7)C(=O)N(C7CCC(=O)NC7=O)C8=O)c6)CC5)C4)nc3)cc21` (stereo partly shown) [Compound 198, 2-(2,6-dioxopiperidin-3-yl)-5-((3-(3-(4-((1r,3r)-3-((5-(5-methyl-5H-pyrido[4,3-b]indol-7-yl)pyridin-2-yl)oxy)cyclobutoxy)piperidin-1-yl)phenyl)prop-2-yn-1-yl)oxy)isoindoline-1,3-dione] as the compound, how does the “Degradation activity (tau protein remaining; highest amount of degradation observed at any dosage)” value read?
The value was “A (≤50% tau protein remaining after 72 hours of incubation with the test compound)”.

How did the “Degradation activity (tau protein remaining; highest amount of degradation observed at any dosage)” value turn out when `Cn1c2ccncc2c2ccc(-c3ccc(O[C@H]4C[C@H](N(C)C(=O)C56CC(COCCCCOc7ccc8c(c7)C(=O)N(C7CCC(=O)NC7=O)C8=O)(C5)C6)C4)nc3)cc21` (stereo partly shown) [Compound 199, 3-((4-((2-(2,6-dioxopiperidin-3-yl)-1,3-dioxoisoindolin-5-yl)oxy)butoxy)methyl)-N-methyl-N-((1r,3r)-3-((5-(5-methyl-5H-pyrido[4,3-b]indol-7-yl)pyridin-2-yl)oxy)cyclobutyl)bicyclo[1.1.1]pentane-1-carboxamide] was run?
The value was “C (>80% tau protein remaining after 72 hours of incubation with the test compound)”.

For `Cc1ncsc1-c1ccc(CNC(=O)[C@@H]2C[C@@H](O)CN2C(=O)[C@H](C(C)C)N2Cc3ccccc3C2=O)c(OCCOCCOCCOCCOCCOc2ccc(-c3ccc4c(c3)[nH]c3ccncc34)cn2)c1` [Compound 201, (2S,4R)—N-(2-((14-((5-(5H-pyrido[4,3-b]indol-7-yl)pyridin-2-yl)oxy)-3,6,9,12-tetraoxatetradecyl)oxy)-4-(4-methylthiazol-5-yl)benzyl)-4-hydroxy-1-((S)-3-methyl-2-(1-oxoisoindolin-2-yl)butanoyl)pyrrolidine-2-carboxamide], which “Degradation activity (tau protein remaining; highest amount of degradation observed at any dosage)” value is on record?
The value was “C (>80% tau protein remaining after 72 hours of incubation with the test compound)”.

With `CN(CCCO[C@H]1C[C@H](Oc2ccc(-c3ccc4c5cnccc5n(C)c4c3)cn2)C1)C(=O)COCC1CN(c2ccc3c(c2)C(=O)N(C2CCC(=O)NC2=O)C3=O)C1` (stereo partly shown) [Compound 202, 2-((1-(2-(2,6-dioxopiperidin-3-yl)-1,3-dioxoisoindolin-5-yl)azetidin-3-yl)methoxy)-N-methyl-N-(3-((1r,3r)-3-((5-(5-methyl-5H-pyrido[4,3-b]indol-7-yl)pyridin-2-yl)oxy)cyclobutoxy)propyl)acetamide] as the compound, how does the “Degradation activity (tau protein remaining; highest amount of degradation observed at any dosage)” value read?
The value was “B (≤80% and >50% tau protein remaining after 72 hours of incubation with the test compound)”.

How did the “Degradation activity (tau protein remaining; highest amount of degradation observed at any dosage)” value turn out when `Cn1c2ccncc2c2ccc(-c3cnc(OCCOCCOCCOCCOCCOc4ccc5c(c4)C(=O)N(C4CCC(=O)NC4=O)C5=O)c(C#N)c3)cc21` (stereo not shown) [Compound 203, 2-((14-((2-(2,6-dioxopiperidin-3-yl)-1,3-dioxoisoindolin-5-yl)oxy)-3,6,9,12-tetraoxatetradecyl)oxy)-5-(5-methyl-5H-pyrido[4,3-b]indol-7-yl)nicotinonitrile] was run?
The value was “A (≤50% tau protein remaining after 72 hours of incubation with the test compound)”.

For `O=C1CCC(N2C(=O)c3ccc(OCC#Cc4ccc(O[C@H]5C[C@H](Oc6ccc(-c7cc8[nH]c9ccncc9c8c(F)c7F)cn6)C5)cn4)cc3C2=O)C(=O)N1` (stereo partly shown) [Compound 204, 5-((3-(5-((1r,3r)-3-((5-(8,9-difluoro-5H-pyrido[4,3-b]indol-7-yl)pyridin-2-yl)oxy)cyclobutoxy)pyridin-2-yl)prop-2-yn-1-yl)oxy)-2-(2,6-dioxopiperidin-3-yl)isoindoline-1,3-dione], which “Degradation activity (tau protein remaining; highest amount of degradation observed at any dosage)” value is on record?
The value was “C (>80% tau protein remaining after 72 hours of incubation with the test compound)”.

With `Cn1c2ccncc2c2ccc(-c3ccc(O[C@H]4C[C@H](OC5CCN(c6cccc(CCCOc7ccc8c(c7)C(=O)N(C7CCC(=O)NC7=O)C8=O)c6)CC5)C4)nc3)cc21` (stereo partly shown) [Compound 205, 2-(2,6-dioxopiperidin-3-yl)-5-(3-(3-(4-((1r,3r)-3-((5-(5-methyl-5H-pyrido[4,3-b]indol-7-yl)pyridin-2-yl)oxy)cyclobutoxy)piperidin-1-yl)phenyl)propoxy)isoindoline-1,3-dione] as the compound, how does the “Degradation activity (tau protein remaining; highest amount of degradation observed at any dosage)” value read?
The value was “A (≤50% tau protein remaining after 72 hours of incubation with the test compound)”.
